In ChEMBL document CHEMBL4002596, “Hydroxylated biphenyls as tyrosinase inhibitor: A spectrophotometric and electrochemical study” (Eur J Med Chem, 2017):
The source made the active and inactive calls. The rule behind the calls is not given here.

Key:
[1] = biological target: T1, Mushroom tyrosinase (Agaricus bisporus) (UniProt O42713+Q00024+C7FF04+C7FF05); experiment: Inhibition of immobilized mushroom tyrosinase diphenolase activity assessed as reduction in caffeic acid oxidation at 50 uM by amperometric tyrosinase biosensor method
[2] = biological target: T1, Mushroom tyrosinase (Agaricus bisporus); experiment: Inhibition of mushroom tyrosinase assessed as reduction in caffeic acid oxidation measured after 6 mins by UV-Vis spectrophotometric method
Lymphocyte = experiment: Cytotoxicity against human lymphocytes; type: cell-based
[3] = Aqueous solubility of the compound; type: physicochemical; conditions: buffer
[4] = biological target: T1, Mushroom tyrosinase (Agaricus bisporus); experiment: Inhibition of mushroom tyrosinase diphenolase activity assessed as reduction in caffeic acid oxidation measured after 6 mins by UV-Vis spectrophotometric method
[5] = biological target: T1, Mushroom tyrosinase (Agaricus bisporus); experiment: Inhibition of mushroom tyrosinase monophenolase activity assessed as reduction in lag time of enzymatic reaction at 50 uM using caffeic acid as substrate by amperometric tyrosinase biosensor method

Row | Compound | inhibition [1] | inhibition [2] | IC50 (Lymphocyte) [µM] | solubility [3] | inhibition [4] [%] | inhibition [5]
1 | COc1cc(O)cc(-c2cc(O)cc(OC)c2OC)c1OC | Active | Active |  |  |  | 
2 | C=CCc1cc(-c2ccc(O)c(CC=C)c2)ccc1O | Active | Active | < 100 |  |  | 
3 | Oc1cccc(O)c1-c1c(O)cccc1O | Active | Active |  |  |  | 
4 | Oc1ccc(-c2ccc(O)cc2)cc1 | Active | Active |  |  |  | 
5 | Oc1ccc(-c2ccc(O)c(O)c2)cc1O | Active | Active |  | Soluble | 60 | 
6 | Oc1ccccc1-c1ccccc1O | 10 to 20% | 10% |  |  |  | 
7 | Oc1ccc2c(c1-c1c(O)ccc3c1OCO3)OCO2 | 82% | Active |  |  |  | Active
8 | COc1cc(C)c(-c2cc(O)c(OC)cc2C)cc1O | Active |  |  |  |  | 
